Values of other authors in patent US20100305045A1, “OMEGA-3 OIL CONTAINING OPHTHALMIC EMULSIONS” (Abbott Medical Optics Inc., priority 2009, published 2010).
Read-outs that look alike come from different tables or passages of the source.

Settings: HLB value as reported by the manufacturer of the commercial product, or rough average

Row | Substance | HLB | HLB (listed as Brij 72)
1 | Polyoxyethylene(18) tridecyl ether | 14.5 | –
2 | Sorbitan monostearate | 4.7 | –
3 | 2,4,7,9-Tetramethyl-5-decyne-4,7-diol ethoxylate (15 EO/OH) | 17.0 | –
4 | Polyoxyethylene(5) isooctylphenyl ether [Igepal ® CA-520] | 10.0 | –
5 | Polyoxyethylene(12) tridecyl ether | 14.5 | –
6 | Polyoxyethylene(100) nonylphenyl ether [Igepal ® CO-990] | 19.0 | –
7 | Polyoxyethylene(150) dinonylphenyl ether [Igepal ® DM-970] | 19.0 | –
8 | Polyoxyethylene(2) nonylphenyl ether [Igepal CO-210] | 4.6 | –
9 | Polyoxyethylene(100) stearyl ether [Brij ® 700] | 18.8 | –
10 | Polyoxyethylene(4) lauryl ether [Brij ® 30] | 9.7 | –
11 | Polyoxyethylene(12) nonylphenyl ether [Igepal ® CO-720] | 14.2 | –
12 | Polyoxyethylene(2) oleyl ether [Brij ® 92/93] | 4.9 | –
13 | Sorbitan monooleate | 4.3 | –
14 | Polyoxyethylene(12) isooctylphenyl ether [Igepal ® CA-720] | 14.6 | –
15 | Polyoxyethylene sorbitol hexaoleate | 10.2 | –
16 | Sorbitan monopalmitate | 6.7 | –
17 | Polyoxyethylene(2) isooctylphenyl ether [Igepal ® CA-210] | 4.3 | –
18 | Polyoxyethylene(5) nonylphenyl ether [Igepal ® CO-520] | 10.0 | –
19 | Polyoxyethylene(2) cetyl ether [Brij ® 52] | 5.3 | –
20 | Polyoxyethylene(40) nonylphenyl ether [Igepal ® CO-890] | 17.8 | –
21 | Polyoxyethylene(40) isooctylphenyl ether [Triton ® X-405] | 17.9 | –
22 | Polyoxyethylene sorbitan tetraoleate | 11.4 | –
23 | Polyoxyethylene(2) stearyl ether [Brij ® 72] | 4.9 | approximately 4.9
24 | 2,4,7,9-Tetramethyl-5-decyne-4,7-diol ethoxylate | 8.0 | –
